Test results published in publication PMC7188706 (Cancer Chemotherapy and Pharmacology, 2020).
Entries after “also recorded” stand apart in the source; their conditions may differ. Where two headings read alike, the source gives them in different places.

Columns and labels:
[1] = tested on: HER2-positive breast cancer; parameters: method as in PMID 24711549; conditions: escalated to 7000 mg on days 1–5 of repeating 14-day cycles, heavily pre-treated patients; cited from earlier work
NSCLC patients = tested on: NSCLC patients; parameters: method as in PMID 16878326; conditions: 2000 mg per week; cited from earlier work
[2] = parameters: method as in PMID 26858332; conditions: patients using omeprazole; cited from earlier work
[3] = tested on: patients with known EGFR mutations; conditions: cited from earlier work
[4] = Plasma pharmacokinetics and drug monitoring of high-dose, pulsatile sorafenib (LC-MS/MS, non-compartmental); conditions: for Cmax / AUC(0-t): human, oral
Method: (§1) This single center phase I study was conducted at the Amsterdam UMC, location VUmc, the Netherlands. […] The starting exposure level was 25–50 mg/L/h, analogous to the continuous schedule [23], and was escalated in subsequent cohorts with increments of 25 mg/L/h.
Per patient a maximum of two dose adjustments were permitted. In addition, the maximum concentration (Cmax) and time of maximum concentration (Tmax) were determined.

[5] = cited from earlier work
[6] = tested on: patients with advanced solid malignancies; assay: Phase I safety: treatment-related adverse events (CTCAE v4.0) and dose-limiting toxicity of once weekly high-dose, pulsatile sorafenib;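 further: Single-center phase I trial, adverse events graded by NCI CTCAE version 4.0, safety checks weekly over the first 8 weeks, then every 4 weeks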
Method: as §1
(§2) Each dose was dissolved in either a large glass of water or classic Coca-Cola (the Coca-Cola Company, Atlanta GA) (~ 240 ml).
(§3) Safety and tolerability assessments, including physical examination, ECG and blood hematology and chemistry, were performed weekly during the first 8 weeks and once every 4 weeks thereafter. Adverse events (AEs) were graded according to the National Cancer Institute Common Terminology Criteria for Adverse Events version 4.0.
(§4) Dose (/exposure)-limiting toxicity (DLT) was defined as any grade 3 toxicity that occurred within the first 6 weeks of treatment and possibly related to the study drug.

[7] = tested on: advanced solid malignancies; assay: Tumor response by CT or MRI using RECIST version 1.1; assay type: in vivo, human
Method: Tumor response was assessed by computed tomography or magnetic resonance imaging at baseline and every 8 weeks thereafter using RECIST version 1.1 [24].
Descriptive statistics were used to describe patient characteristics, treatment administration, safety, efficacy and pharmacokinetic data. […] Fisher’s exact tests were used to assess correlations between exposure level or dose and frequency of AEs. […] Data were considered significant at P < 0.05.

[8] = Effect of cola versus water on sorafenib exposure (dose normalized Cmax and AUC(0–12 h)); assay type: in vivo, human; conditions: dissolved in cola vs water, patients using PPI
From the text: Descriptive statistics were used to describe patient characteristics, treatment administration, safety, efficacy and pharmacokinetic data. Progression-free survival (PFS) was defined as the time from first treatment until progression of disease or death as a result of any cause. Fisher’s exact tests were used to assess correlations between exposure level or dose and frequency of AEs. […] Data were considered significant at P < 0.05.

patients = conditions: cited from earlier work
[9] = tested on: 789-O renal cell carcinoma xenografts; conditions: high-dose schedule; also increased reduction of tumor perfusion and microvessel density; cited from earlier work
[10] = cited from earlier work; remark: listed apart in the source
[11] = cited from earlier work; remark: listed apart in the source
[12] = parameters: method as in PMID 15613696; conditions: 400 mg twice daily; cited from earlier work
[13] = tested on: progressive renal cell carcinoma; conditions: 600 mg twice daily after failure of standard dosing; cited from earlier work
[14] = cited from earlier work; remark: listed apart in the source
[15] = tested on: patients with advanced solid malignancies; conditions: in vivo;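 further: Single-center phase I trial, adverse events graded by NCI CTCAE version 4.0, safety checks weekly over the first 8 weeks, then every 4 weeks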
Method: as §1, §2, §3, §4

[16] = tested on: advanced solid malignancies; conditions: cited from earlier work

In the case of `CS(=O)(=O)CCNCc1ccc(-c2ccc3ncnc(Nc4ccc(OCc5cccc(F)c5)c(Cl)c4)c3c2)o1` [lapatinib], the objective response rate [1] is listed as 15%.

In the case of `C#Cc1cccc(Nc2ncnc3cc(OCCOC)c(OCCOC)cc23)c1` [erlotinib], the “mean overall survival (OS)” value (NSCLC patients) is listed as 9.5 months, the tolerability (NSCLC patients) is listed as “well tolerated” and the “effect of cola intake on bioavailability” value [2] is listed as “did improve by cola intake”. For the same compound, the tolerability ([3]; erlotinib 450 mg every 3 days or gefitinib 1000 mg every 4 days) was “well tolerated”, the “median PFS” value ([3]; erlotinib 450 mg every 3 days) was 6 months and the response rate ([3]; erlotinib 450 mg every 3 days) was 15%.

In the case of `CNC(=O)c1cc(Oc2ccc(NC(=O)Nc3ccc(Cl)c(C(F)(F)F)c3)cc2)cc[n+]1[O-]` [sorafenib N-oxide], the “metabolite as share of the parent drug” value ([4]; plasma) is reported as “approximately 4%”.

For `CNC(=O)c1cc(Oc2ccc(NC(=O)Nc3ccc(Cl)c(C(F)(F)F)c3)cc2)ccn1` [sorafenib], the solubility ([5]; pH 1.0) is listed as 0.034 mg/100 mL, the solubility ([5]; pH 4.5) is listed as 0.013 mg/100 mL and the “tolerated dose in a pulsatile schedule as multiple of conventional dose” value [6] is listed as ~ 3.5 times. The “duration of stable disease” value ([7]; patient with cholangiocarcinoma, target exposure 75–100 mg/L/h, 2400 mg/week) was 3 months, the “duration of stable disease” value ([7]; patient with hepatocellular carcinoma, target exposure 100–125 mg/L/h, 4800 mg/week) was 5.5 months and the “complete or partial responses” value ([7]; thirteen patients evaluable) was “No complete or partial responses were observed”. For the same compound, the “progressive disease, patients” value ([7]; thirteen patients evaluable, eleven patients) was 85%, the “best response stable disease, patients” value ([7]; thirteen patients evaluable, two patients) was 15% and the “effect of cola on sorafenib AUC(0–12 h)” value ([8]; P = 0.24) was “did not improve sorafenib exposure; also recorded: did not lead to an increase; also recorded: did not affect”. For the same compound, the “effect of cola on sorafenib Cmax” value ([8]; P = 0.33) was “did not lead to an increase; also recorded: did not affect”, the “incidence of perforation of the gastrointestinal tract” value (patients; standard continuous schedule) was less than 1% and the “most important DLTs” value (patients; standard dose sorafenib, several phase I studies) was “skin toxicity, diarrhea and fatigue”. The “tumor growth in comparison to continuous conventional dosing” value [9] was “slower tumor growth”, the “improvement of absorption by multiple divided doses per day” value [10] was 50% and the “effects of PPI on sorafenib absorption” value ([10]; contradicting results) was “no effects to one-third reduction”. The “dose above which absorption is saturable” value ([10]; daily continuous schedule) was greater than 800 mg/day, the “improvement of absorption by a moderate fat meal” value ([10]; in comparison to a high fat meal of ≥ 50% fat) was 30% and the “Observed AUC(0–12 h) week 3, mean (± SD)” value ([4]; Cohort 1, target AUC(0–12 h) 25–50 mg/L/h, PK-guided dose week 3 533 (± 306) mg, plasma) was 31 (± 13) mg/L/h. The “mean difference between observed and target AUC(0–12 h), week 3” value ([4]; after drug monitoring / personalized dose titration, SD ± 32%, P = 0.06 vs week 1) was 2%, the “mean difference between observed and target AUC(0–12 h), week 1” value ([4]; fixed starting dose, SD ± 56%) was 45% and the Cmax ([4]; plasma, 533 mg, Cmax week 3, mean (± SD), Cohort 1, PK-guided dose week 3 533 (± 306) mg) was 4380 ng/mL. The AUC(0-t) ([4]; plasma, 1000 mg, AUC(0–12 h), range, first exposure cohort, target AUC(0–12 h) 25–50 mg/L/h) was 61 to 103 µg·h/mL, the AUC(0-t) ([4]; plasma, 1000 mg, Observed AUC(0–12 h) week 1, mean (± SD), Cohort 1, 3 patients, target AUC(0–12 h) 25–50 mg/L/h, fixed dose week 1 1000 mg) was 78 µg·h/mL and the Cmax ([4]; plasma, 1867 mg, Cmax week 3, mean (± SD), Cohort 2, PK-guided dose week 3 1867 (± 993) mg) was 11100 ng/mL. The Cmax ([4]; plasma, 2000 mg, Cmax week 1, mean (± SD), Cohort 2, 8 patients, fixed dose week 1 2000 mg) was 13700 ng/mL, the AUC(0-t) ([4]; plasma, 2000 mg, Observed AUC(0–12 h) week 1, mean (± SD), Cohort 2, 8 patients, target AUC(0–12 h) 75–100 mg/L/h, fixed dose week 1 2000 mg) was 125 µg·h/mL and the Cmax ([4]; plasma, 2333 mg, Cmax week 3, mean (± SD), Cohort 3, PK-guided dose week 3 2333 (± 219) mg) was 13300 ng/mL. For the same compound, the Cmax ([4]; plasma, 2400 mg, Cmax week 1, mean (± SD), Cohort 3, 3 patients, fixed dose week 1 2400 mg) was 20800 ng/mL, the Cmax ([4]; plasma, 2400 mg, Cmax, highest, SD ± 11 mg/L) was no more than 21000 ng/mL and the AUC(0-t) ([4]; plasma, 2400 mg, highest exposure levels, AUC(0–12 h), SD ± 113 mg/L/h) was no more than 204 µg·h/mL. For the same compound, the AUC(0-t) ([4]; plasma, 2800 mg, Observed AUC(0–12 h) week 1, mean (± SD), Cohort 4, 3 patients, target AUC(0–12 h) 125–150 mg/L/h, fixed dose week 1 2800 mg) was 120 µg·h/mL, the AUC(0-t) ([4]; plasma, 3600 mg, observed AUC(0–12 h), individual patient, patient with grade 5 biliary tract perforation, sorafenib dose 3600 mg) was 182 µg·h/mL and the “sorafenib dose up to which mean exposure increased” value ([4]; no additional increases thereafter, divided doses of 200–400 mg every 2 h) was “up to 2400 mg per week”. The “accumulation a week after each ingestion” value ([4]; once weekly) was “No accumulation”, the enterohepatic circulation [11] was “has been observed” and the “mean Cmax, steady state” value [12] was 5400 to 9400 ng/mL. For the same compound, the “mean sorafenib exposure (AUC), day 1” value [12] was 21.8 to 107 mg/L/h, the “mean sorafenib exposure (AUC), steady state” value [12] was 47.8 to 71.7 mg/L/h and the “patients with tumor reduction” value [13] was 42%. For the same compound, the “association of higher AUCmax (> 100 mg/L/h) with outcome” value [14] was “longer progression-free survival”, the “ALP increased, Grade All, no. of patients (%)” value ([15]; human) was 3 (20%) and the “ALP increased, Grade ≥ 3, no. of patients (%)” value ([15]; human) was 2 (13%). For the same compound, the “Anorexia, Grade All, no. of patients (%)” value ([15]; human) was 3 (20%), the “Anorexia, Grade ≥ 3, no. of patients (%)” value ([15]; human) was 0 and the “Bilirubin increased, Grade All, no. of patients (%)” value ([15]; human) was 2 (13%). The “Bilirubin increased, Grade ≥ 3, no. of patients (%)” value ([15]; human) was 0, the “Bloating, Grade All, no. of patients (%)” value ([15]; human) was 2 (13%) and the “Bloating, Grade ≥ 3, no. of patients (%)” value ([15]; human) was 0. For the same compound, the “Diarrhea, Grade All, no. of patients (%)” value ([15]; human) was 4 (27%), the “Diarrhea, Grade ≥ 3, no. of patients (%)” value ([15]; human) was 0 and the “Fatigue, Grade All, no. of patients (%)” value ([15]; human) was 10 (67%). For the same compound, the “Fatigue, Grade ≥ 3, no. of patients (%)” value ([15]; human) was 0, the “GGT increased, Grade All, no. of patients (%)” value ([15]; human) was 1 (7%) and the “GGT increased, Grade ≥ 3, no. of patients (%)” value ([15]; human) was 1 (7%). For the same compound, the “Multiorgan failure, Grade All, no. of patients (%)” value ([15]; human) was 1 (7%), the “Multiorgan failure, Grade ≥ 3, no. of patients (%)” value ([15]; human) was 1 (7%) and the “Nausea, Grade All, no. of patients (%)” value ([15]; human) was 10 (67%). For the same compound, the “Nausea, Grade ≥ 3, no. of patients (%)” value ([15]; human) was 0, the “Perforation, Grade All, no. of patients (%)” value ([15]; human) was 2 (13%) and the “Perforation, Grade ≥ 3, no. of patients (%)” value ([15]; human) was 2 (13%). The “Stomatitis, Grade All, no. of patients (%)” value ([15]; human) was 2 (13%), the “Stomatitis, Grade ≥ 3, no. of patients (%)” value ([15]; human) was 0 and the “Vomiting, Grade All, no. of patients (%)” value ([15]; human) was 8 (53%). The “Vomiting, Grade ≥ 3, no. of patients (%)” value ([15]; human) was 0, the “diarrhea, frequency” value ([15]; human) was 27% and the “doses from which grade ≥ 3 AEs developed” value ([15]; human) was no less than 2800 mg/week. The “fatigue, frequency” value ([15]; human) was 67%, the incidence of perforation ([15]; human) was 13% and the “nausea, frequency” value ([15]; human) was 67%. For the same compound, the “patients requiring dose interruptions” value ([15]; human) was 33%, the “patients with dose interruptions due to DLTs leading to permanent study discontinuation” value ([15]; human) was 20% and the “vomiting, frequency” value ([15]; human) was 53%. For the same compound, the “dose-limiting toxicity, one patient” value ([15]; human, 3 cycles) was “grade 5 biliary tract perforation”, the “frequency and rate of grade ≥ 3 AEs versus dose” value [15] was “increased with a higher dose of sorafenib” and the “frequency and rate of grade ≥ 3 AEs versus exposure” value [15] was “did not increase with higher exposure”. For the same compound, the “patients with dose-limiting toxicity” value [15] was “three patients”.

For `CCN(CC)CCNC(=O)c1c(C)[nH]c(/C=C2\C(=O)Nc3ccc(F)cc32)c1C` [sunitinib], the “increase of Cmax” value ([16]; 14 times the conventional dose) is listed as 18 fold, the “patients with PFS of ≥ 5 months” value [16] is listed as 30% and the “patients with clinical benefit” value ([16]; more than 70 heavily pre-treated patients) is listed as 63%.
